Data taken from ChEMBL document CHEMBL1201862, “PubChem BioAssay data set” (2004).
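Interpolation was linear, between the two tested concentrations surrounding the appropriate level; five concentrations were tested over 48 hours in 96-well plates. Here, GI50 denotes the concentration required for 50% inhibition of growth.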 Calls of active or inactive are those of the source. Rule as the data show it: active = GI50 up to about 1.1 µM and inactive = higher.

How the values were obtained:
Assay in all cases: DTP human tumour cell line panel, 48 h
SK-MEL-28 = tested on: SK-MEL-28
T47D = tested on: T47D
HOP-92 = tested on: HOP-92
COLO 205 = tested on: COLO 205
HT-29 = tested on: HT-29
UACC-62 = tested on: UACC-62
BT-549 = tested on: BT-549
SNB-19 = tested on: SNB-19
Malme-3M = tested on: Malme-3M
M14 = tested on: M14
SF-295 = tested on: SF-295
IGROV-1 = tested on: IGROV-1
SN12C = tested on: SN12C
SK-OV-3 = tested on: SK-OV-3
HCT-15 = tested on: HCT-15
SK-MEL-5 = tested on: SK-MEL-5
MDA-MB-231 = tested on: MDA-MB-231
A549 = tested on: A549
DU-145 = tested on: DU-145
NCI/ADR-RES = tested on: NCI/ADR-RES

| SMILES | GI50 (SK-MEL-28) | GI50 (T47D) | GI50 (HOP-92) | GI50 (COLO 205) | GI50 (HT-29) | GI50 (UACC-62) | GI50 (BT-549) | GI50 (SNB-19) | GI50 (Malme-3M) | GI50 (M14) | GI50 (SF-295) | GI50 (IGROV-1) | GI50 (SN12C) | GI50 (SK-OV-3) | GI50 (HCT-15) | GI50 (SK-MEL-5) | GI50 (MDA-MB-231) | GI50 (A549) | GI50 (DU-145) | GI50 (NCI/ADR-RES) |
| --- | --- | --- | --- | --- | --- | --- | --- | --- | --- | --- | --- | --- | --- | --- | --- | --- | --- | --- | --- | --- |
| CCN(CC)CCC(=O)N1C/C(=C/c2ccccc2)C(=O)/C(=C\c2ccccc2)C1 | 1.82 µM (inactive) | 1.19 µM (inactive) | 4.52 µM (inactive) | 2.31 µM (inactive) | 0.811 µM (active) | 2.03 µM (inactive) | 0.363 µM (active) | 2.2 µM (inactive) | 2.58 µM (inactive) | 1.52 µM (inactive) | 2.11 µM (inactive) | 3.03 µM (inactive) | 1.3 µM (inactive) | 8.57 µM (inactive) | 1.24 µM | 1.76 µM (inactive) | 0.845 µM (active) | 4.76 µM (inactive) | 3.15 µM (inactive) |  |
| Cc1cccc2c1Oc1cc(Cl)ccc1C2NC(=O)CCN1CCCCC1 (stereo unspecified) | 15.6 µM (inactive) | 13.1 µM (inactive) | 2.02 µM (inactive) | 15 µM (inactive) | 12.6 µM (inactive) | 14.7 µM (inactive) | 18.7 µM (inactive) | 17.5 µM (inactive) |  | 17.7 µM (inactive) | 18.8 µM (inactive) | > 10 µM (inactive) | 17.3 µM (inactive) |  | 17.7 µM | 14.9 µM (inactive) | 20.6 µM (inactive) | 18.7 µM (inactive) | > 10 µM (inactive) | 15.5 µM (inactive) |
| Cc1nc(N)c(N2CCN([N+](=O)[O-])CC2)c(O)n1 | > 100 µM (inactive) | > 100 µM (inactive) |  | > 100 µM (inactive) | > 100 µM (inactive) |  | > 100 µM (inactive) | > 100 µM (inactive) | > 100 µM (inactive) | > 100 µM (inactive) | > 100 µM (inactive) |  | > 100 µM (inactive) |  | > 100 µM |  | > 100 µM (inactive) | > 100 µM (inactive) | > 100 µM (inactive) | > 100 µM (inactive) |
| S=C1CC(c2ccccc2)Sc2ccc(Cl)cc2N1 (stereo unspecified) | 41.1 µM (inactive) | 59.3 µM (inactive) |  | 63.7 µM (inactive) | 60.7 µM (inactive) | 48.1 µM (inactive) | 19.9 µM (inactive) | 34 µM (inactive) | > 100 µM (inactive) | 37.4 µM (inactive) | 26.9 µM (inactive) | 90.8 µM (inactive) | 94 µM (inactive) | 56.6 µM (inactive) | 32.7 µM | 22 µM (inactive) | 47.9 µM (inactive) | 34.8 µM (inactive) | 42.9 µM (inactive) | 86.3 µM (inactive) |
| CN1CCC2(CC1)C(=O)N(NC(N)=O)C(=O)C2c1ccccc1 (stereo unspecified) | > 100 µM (inactive) | > 100 µM (inactive) |  | > 100 µM (inactive) | > 100 µM (inactive) | > 100 µM (inactive) | > 100 µM (inactive) | > 100 µM (inactive) | > 100 µM (inactive) | > 100 µM (inactive) | > 100 µM (inactive) | > 100 µM (inactive) | > 100 µM (inactive) | > 100 µM (inactive) | > 100 µM | > 100 µM (inactive) | > 100 µM (inactive) | > 100 µM (inactive) | > 100 µM (inactive) | > 100 µM (inactive) |
| Cc1[nH]n(-c2nc(O)c(C)c(=O)[nH]2)c(=O)c1CCO | > 100 µM (inactive) | > 100 µM (inactive) | > 100 µM (inactive) | > 100 µM (inactive) | > 100 µM (inactive) | > 100 µM (inactive) | > 100 µM (inactive) | > 100 µM (inactive) | > 100 µM (inactive) | > 100 µM (inactive) | > 100 µM (inactive) | > 100 µM (inactive) | > 100 µM (inactive) | > 100 µM (inactive) | > 100 µM | > 100 µM (inactive) | > 100 µM (inactive) | > 100 µM (inactive) | > 100 µM (inactive) |  |
| CC(C)CC(=O)CC(O)C(Cl)(Cl)Cl (stereo unspecified) | > 100 µM (inactive) | > 100 µM (inactive) |  | > 100 µM (inactive) | > 100 µM (inactive) | > 100 µM (inactive) | > 100 µM (inactive) | > 100 µM (inactive) | 20.7 µM (inactive) | > 100 µM (inactive) | > 100 µM (inactive) | > 100 µM (inactive) | > 100 µM (inactive) | 87.1 µM (inactive) | > 100 µM | > 100 µM (inactive) | > 100 µM (inactive) | > 100 µM (inactive) | > 100 µM (inactive) | > 100 µM (inactive) |
| O=C(O)Cc1ccc(Oc2nc3ccccc3nc2-c2ccccc2)cc1 | 90.6 µM (inactive) | > 100 µM (inactive) |  | 48.4 µM (inactive) | 61.9 µM (inactive) | 24.9 µM (inactive) | 37 µM (inactive) | > 100 µM (inactive) | 65.8 µM (inactive) | 36.2 µM (inactive) | 79.4 µM (inactive) | 45.9 µM (inactive) | 70 µM (inactive) | > 100 µM (inactive) | 65.3 µM | 59.6 µM (inactive) | 58.1 µM (inactive) | 57.8 µM (inactive) | 69.7 µM (inactive) | 99.5 µM (inactive) |
| Cc1ccc(F)c2[nH]c(-c3ccccc3)cc(=O)c12 | 3.11 µM (inactive) | 11.3 µM (inactive) |  | 6.81 µM (inactive) | 4.57 µM (inactive) | 3.84 µM (inactive) | 7.06 µM (inactive) | 9.98 µM (inactive) | 17.9 µM (inactive) | 3.37 µM (inactive) | 6.47 µM (inactive) | 5.3 µM (inactive) | 7.1 µM (inactive) | 5.43 µM (inactive) | 1.64 µM | 2.75 µM (inactive) | 20.9 µM (inactive) | 4.97 µM (inactive) | 8.04 µM (inactive) | 3.82 µM (inactive) |
| COc1ccc2c(N=[N+]=[N-])c(-c3ccccc3)c(=O)oc2c1 | > 100 µM (inactive) | 22.8 µM (inactive) |  | 56.8 µM (inactive) | 32.1 µM (inactive) | 58.6 µM (inactive) | 31.4 µM (inactive) |  | 33.3 µM (inactive) | 57 µM (inactive) | 61.9 µM (inactive) | > 100 µM (inactive) | 61.1 µM (inactive) | 76.6 µM (inactive) | 56.6 µM | 25.5 µM (inactive) | 87.1 µM (inactive) | 48.4 µM (inactive) | 65.6 µM (inactive) |  |
| O=[N+]([O-])c1ccc(N2N=C(c3ccc4ccccc4c3O)CC2c2ccc(Cl)cc2Cl)c([N+](=O)[O-])c1 (stereo unspecified) | 65.8 µM (inactive) | 27.7 µM (inactive) |  | 44.7 µM (inactive) | 40.1 µM (inactive) | 26.7 µM (inactive) | 49.1 µM (inactive) | 29.3 µM (inactive) | 32.2 µM (inactive) | > 10 µM (inactive) | 24.3 µM (inactive) | 23.3 µM (inactive) | 71 µM (inactive) | 47.8 µM (inactive) | 27.2 µM | 29.1 µM (inactive) | 30.9 µM (inactive) | 28.5 µM (inactive) | 55.5 µM (inactive) | 28.6 µM (inactive) |
| CC(=O)O[C@H]1CC[C@@]2(C)C(=CC[C@@H]3[C@@H]2CC[C@]2(C)NC(=O)/C(=C\c4ccccc4)C[C@@H]32)C1 | 16.8 µM (inactive) | 13.5 µM (inactive) |  | 17.1 µM (inactive) | 15 µM (inactive) | 14 µM (inactive) | 18.6 µM (inactive) | 16.1 µM (inactive) | 18 µM (inactive) | 16.1 µM (inactive) | 17.8 µM (inactive) | 21.4 µM (inactive) | 18.7 µM (inactive) | 20.9 µM (inactive) | 18.6 µM | 10.8 µM (inactive) | 22.6 µM (inactive) | 17.1 µM (inactive) | 15.9 µM (inactive) | 24.5 µM (inactive) |
| Cc1n[nH]c(=O)n1/N=C/c1ccc([N+](=O)[O-])o1 | 11.2 µM (inactive) | 19.5 µM (inactive) |  | 8.59 µM (inactive) | 12.9 µM (inactive) | 13.1 µM (inactive) | 21.8 µM (inactive) | 31 µM (inactive) | 4.65 µM (inactive) | 11.6 µM (inactive) | 25.8 µM (inactive) |  | 5.64 µM (inactive) | 28.2 µM (inactive) | 7.01 µM | 3.56 µM (inactive) | 18.2 µM (inactive) | 16.7 µM (inactive) | 10.4 µM (inactive) | 17.4 µM (inactive) |
| O=C1OC(=O)c2cc(S(=O)(=O)c3ccc4c(c3)C(=O)OC4=O)ccc21 | > 100 µM (inactive) | > 100 µM (inactive) |  | > 100 µM (inactive) | > 100 µM (inactive) | > 100 µM (inactive) | > 100 µM (inactive) | > 100 µM (inactive) | 24.1 µM (inactive) | > 100 µM (inactive) | > 100 µM (inactive) | > 100 µM (inactive) | > 100 µM (inactive) | > 100 µM (inactive) | > 100 µM | > 100 µM (inactive) | > 100 µM (inactive) | > 100 µM (inactive) | > 100 µM (inactive) | > 100 µM (inactive) |
| NC(Cc1ccc(S(=O)(=O)O)cc1)C(=O)NC(Cc1ccc(S(=O)(=O)O)cc1)C(=O)NC(Cc1ccc(S(=O)(=O)O)cc1)C(=O)NC(Cc1ccc(S(=O)(=O)O)cc1)C(=O)O (stereo unspecified) | > 100 µM (inactive) | > 100 µM (inactive) |  | > 100 µM (inactive) | > 100 µM (inactive) | > 100 µM (inactive) | > 100 µM (inactive) |  | 68.5 µM (inactive) | > 100 µM (inactive) | > 100 µM (inactive) | > 100 µM (inactive) | > 100 µM (inactive) | > 100 µM (inactive) | > 100 µM | > 100 µM (inactive) | > 100 µM (inactive) | > 100 µM (inactive) | > 100 µM (inactive) | > 100 µM (inactive) |
